Experimental data published in patent publication US20260209777A1, “TARGETING GLYCOSYLPHOSPHATIDYLINOSITOL (GPI) PATHWAY PROTEINS TO TREAT OVARIAN CANCER” (UNIVERSITY OF MASSACHUSETTS, priority 2023, published 2026).

Tests used:
[1] = tested on: CD24 cell surface expression in MCF7 breast cancer cells; test: CD24 flow cytometry analysis in MCF7 cells; format: cell-based, human; settings: MCF7, 10 or 20 μM bestatin vs DMSO (FIG. 7D)
Experimental: Flow Cytometry Analysis: For cell surface protein staining, 1×10^5-1×10^6 cells were first incubated with Fc receptor blocking solution, Human TruStain FcX™ (BioLegend, Cat #422301) for 10 minutes at room temperature. Cells were washed once in FACS buffer (1×PBS, 1.0% bovine serum albumin (BSA) (Sigma) and 0.2% sodium azide (Sigma), and then incubated with antibodies (given below) for 30 minutes at 4° C. in the dark. Cells were also stained with 7-AAD (Biolegend, Cat #420404) for dead cell exclusion, and flow cytometry analysis was performed using a Bio-Rad ZE5 Cell Analyzer. Following antibodies used in this study (all antibodies were used at 1:50 dilution unless otherwise noted): APC anti-human CD24 (BioLegend, Cat #311118, clone ML5), PE anti-human CD24 (eBioscience, Cat #12-0247-42, clone SN3), APC anti-human CD47 (BioLegend, Cat #323124, clone CC2C6), APC anti-human § 2-microglobulin (BioLegend, Cat #395711, clone A17082A), PE anti-human HLA-A2 (MHC-class I) (BioLegend, Cat #343305, clone BB7.2), APC anti-human CD11b (BioLegend, Cat #982604, clone ICRF44), APC anti-mouse F4/80 antibody (BioLegend, Cat #123116, clone BM8), APC-streptavidin (Thermo Fisher Scientific, Cat #SA1005, 1:100 dilution), PE anti-Calreticulin (Invitrogen, Catalog #MA5-15382, 1:200 dilution). […]

OVCAR8-GFP-Luc cells = test: Intraperitoneal OVCAR8 xenograft in NSG mice (bioluminescence imaging, ascites, in vivo phagocytosis)
Experimental: Animal Experiments: All mouse studies were performed in accordance with the Guide for the Care and Use of Laboratory Animals from NIH, and a protocol (202000157) approved by the UMass Chan Medical School Institutional Animal Care and Use Committee (IACUC). Female NSG mice (n=3 per group), 6-7 weeks of age, were injected intraperitoneally with 4×10^6 OVCAR8/EmGFP-luc cells or OVCAR8-ΔGPAA1/EmGFP-luc cells. Tumors were analyzed using bioluminescence imaging beginning 7 days post-engraftment and continuing every 7 days until day 28. Mice were injected intraperitoneally with firefly D-luciferin at 140 mg/kg in PBS and images were acquired 10 min after luciferin injection using an IVIS Spectrum (Perkin Elmer). Total flux was quantified using Living Image 4.0 software (IVIS Imaging Systems).
For macrophage depletion experiments, 200 μl of clodronate liposomes (Liposoma) was administered intraperitoneally every 4 days for 16 days before tumor implantation, followed by injection of 100 μl of clodronate liposomes every 4 days. Depletion of […] was verified by flow cytometry analysis peritoneal lavage using an APC anti-mouse F4/80 antibody (BioLegend, Cat #123116, clone BM8, 1:50 dilution).
[…] Tumors were analyzed by in vivo bioluminescence imaging as described above.
In vivo Phagocytosis Assay: An in vivo phagocytosis assay was performed as described previously (Barkal et al., Nature 2019, 572(7769):392-396). Mice were implanted with 4×10^6 OVCAR8/EmGFP-luc cells as described above and 7 days later bestatin (100 mg/kg) was administered daily by intraperitoneal injection. After 10 days of bestatin treatment, peritoneal ascites was harvested. Single-cell suspensions of ascitic cells were blocked using TruStain FcX (anti-mouse CD16/32 antibody (BioLegend, Cat #101320) for 10 min at room temperature and then stained with an APC anti-mouse F4/80 antibody (BioLegend, Cat #123116, clone BM8, 1:50 dilution) for 30 min on ice in the dark. The percentage of cells undergoing phagocytosis was calculated as the percentage of F4/80+ EmGFP+ double-positive cells in the population.

Question: Which “CD24 cell surface expression (MFI)” value [1] does the source give for CC(C)C[C@H](NC(=O)[C@@H](O)[C@H](N)Cc1ccccc1)C(=O)O [bestatin] here?
Answer: The value was “did not decrease”.

Question: And the “tumor growth (total flux, in vivo bioluminescence imaging)” value (OVCAR8-GFP-Luc cells; NSG mice, IP OVCAR8-GFP-Luc, bestatin 100 mg/kg/d IP vs vehicle (FIG. 10C))?
Answer: The value was “significantly reduced”.

Question: What about the “GFP+F4/80+ double-positive cells in ascites (in vivo phagocytosis)” value (OVCAR8-GFP-Luc cells; bestatin 100 mg/kg daily IP, 10 days, vs vehicle (FIG. 10E)) of the same compound?
Answer: The value was “increase”.

Question: And the ascites volume (OVCAR8-GFP-Luc cells; bestatin 100 mg/kg/d IP, 10 days of treatment, vs vehicle (FIG. 10D))?
Answer: Its ascites volume is “significantly reduced”.
